Data taken from patent US20230398130A1, “METHODS AND COMPOSITIONS FOR DIFFERENTIATING STEM CELLS” (Massachusetts Institute of Technology, priority 2020, published 2023).

Key:
[1] = system: ISC-enriched organoids; experiment: Primary screen, 384-well 2.5-D organoid differentiation (ENR+CD, 6 days, Target Selective Inhibitor Library, vs whole-plate median): ATP (CellTiter-Glo 3D, CTG); settings: primary screen; for Z.CTG: standard z score; for SSMD.CTG: strictly standardized mean difference; for Dose.FC.CTG: FC vs plate median
[2] = system: ISC-enriched organoids; experiment: Primary screen, 384-well 2.5-D organoid differentiation (ENR+CD, 6 days): basal lysozyme secretion (LYZ.NS); format: cell-based, murine; settings: primary screen; for SSMD.LYZ.NS: strictly standardized mean difference; for Dose.FC.LYZ.NS: FC vs plate median; for Z.LYZ.NS: standard z score
Source text: (§1) High-throughput screening.

[3] = system: ISC-enriched organoids; experiment: Primary screen, 384-well 2.5-D organoid differentiation (ENR+CD, 6 days): carbachol-induced lysozyme secretion (LYZ.S); format: cell-based, murine; settings: primary screen; for Z.LYZ.S: standard z score; for SSMD.LYZ.S: strictly standardized mean difference; for Dose.FC.LYZ.S: FC vs plate median
Source text: as §1

[4] = 1st of the 4 dose lines of the treatment (dose not given)
[5] = 2nd of the 4 dose lines of the treatment (dose not given)
[6] = 3rd of the 4 dose lines of the treatment (dose not given)
[7] = 4th of the 4 dose lines of the treatment (dose not given)

Row | SMILES | Z.CTG ([1]; Dose 0.08 uM) | Z.CTG ([1]; Dose 0.40 uM) | Z.CTG ([1]; Dose 2.00 uM) | Z.CTG ([1]; Dose 10.00 uM) | SSMD.CTG [1, 4] | SSMD.CTG [1, 5] | SSMD.CTG [1, 6] | SSMD.CTG [1, 7] | SSMD.LYZ.NS [2, 4] | SSMD.LYZ.NS [2, 5] | SSMD.LYZ.NS [2, 6] | SSMD.LYZ.NS [2, 7] | Z.LYZ.S [3, 4] | Z.LYZ.S [3, 5] | Z.LYZ.S [3, 6] | Z.LYZ.S [3, 7] | SSMD.LYZ.S [3, 4] | SSMD.LYZ.S [3, 5] | SSMD.LYZ.S [3, 6] | SSMD.LYZ.S [3, 7] | further results
1 | Cc1cc(Nc2ncc(Cl)c(Nc3ccccc3S(=O)(=O)C(C)C)n2)c(OC(C)C)cc1C1CCNCC1 [LDK378] | 0.322 | 0.010 | −0.869 | −3.087 | 0.320 | 0.013 | −0.596 | −1.329 | 0.246 | −0.527 | −1.818 | −2.550 | 0.763 | −0.306 | −1.817 | −3.149 | 0.574 | −0.290 | −1.400 | −2.075 | 
2 | c1cc(-c2cnn3cc(-c4ccc(N5CCNCC5)cc4)cnc23)c2cccnc2c1 [LDN-212854] | 0.568 | 0.309 | −1.134 | −3.018 | 0.686 | 0.242 | −1.244 | −1.589 | 0.567 | 0.395 | −1.438 | −1.649 | 1.050 | 0.167 | −1.888 | −2.582 | 0.799 | 0.136 | −1.525 | −1.672 | Dose.FC.CTG ([1]; Dose 0.08 uM): 0.238 log 2 fold change; Dose.FC.CTG ([1]; Dose 0.40 uM): 0.129 log 2 fold change; Dose.FC.CTG ([1]; Dose 2.00 uM): −0.475 log 2 fold change; Dose.FC.CTG ([1]; Dose 10.00 uM): −1.263 log 2 fold change; Dose.FC.LYZ.NS ([2]; Dose 0.08 uM): 0.095 log 2 fold change; Z.LYZ.NS ([2]; Dose 0.08 uM): 0.823; Dose.FC.LYZ.NS ([2]; Dose 0.40 uM): 0.051 log 2 fold change; Z.LYZ.NS ([2]; Dose 0.40 uM): 0.446; Dose.FC.LYZ.NS ([2]; Dose 2.00 uM): −0.217 log 2 fold change; Z.LYZ.NS ([2]; Dose 2.00 uM): −1.885; Dose.FC.LYZ.NS ([2]; Dose 10.00 uM): −0.273 log 2 fold change; Z.LYZ.NS ([2]; Dose 10.00 uM): −2.375; Dose.FC.LYZ.S ([3]; Dose 0.08 uM): 0.162 log 2 fold change; Dose.FC.LYZ.S ([3]; Dose 0.40 uM): 0.026 log 2 fold change; Dose.FC.LYZ.S ([3]; Dose 2.00 uM): −0.292 log 2 fold change; Dose.FC.LYZ.S ([3]; Dose 10.00 uM): −0.399 log 2 fold change
